Test results: PMC12535377, “Synaptic and intrinsic plasticity mediated by CCK-type signaling coordinates behavioral changes during motivational state shifts” (Cell reports, 2025)
Like-named read-outs stand apart in the source and are kept apart here. Non-standard residues stand in square brackets, D forms with d. Residues, ends and D or L forms follow the SMILES beside them. sY = N[C@@H](Cc1ccc(OS(=O)(=O)O)cc1)C(=O)O

Legend:
[1] = target: T1, apCCKR1 (Aplysia californica, UniProt A0ABM1AF30); assay: IP1 accumulation assay, apCCKR1 in CHO-K1 cells; type: cell-based; conditions: CHO-K1 cells transfected with receptor and promiscuous Gαq
T1 sequence (A0ABM1AF30 1-261): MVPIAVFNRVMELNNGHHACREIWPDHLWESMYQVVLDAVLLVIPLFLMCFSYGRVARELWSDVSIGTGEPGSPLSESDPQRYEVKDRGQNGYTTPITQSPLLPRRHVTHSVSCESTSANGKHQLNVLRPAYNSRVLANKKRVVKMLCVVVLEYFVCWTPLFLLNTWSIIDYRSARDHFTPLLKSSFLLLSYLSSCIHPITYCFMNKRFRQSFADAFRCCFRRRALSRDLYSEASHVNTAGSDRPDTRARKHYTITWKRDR
Description: (§1) We tested receptor activation using the IP1 (inositol monophosphate) accumulation assay that measures IP1 generated in the Gαq pathway (see STAR Methods).
(§2) CHO-K1 cells were cultured in F-12K medium (Gibco, 21127–022) with 10% fetal bovine serum at 37°C in 5% CO2. Before transfection, cells were grown in 35 mm diameter tissue culture-treated dishes to 85% confluence. For transfection, 1.5 μg apCCKR plasmids or control plasmids (in pcDNA3.1(+) vector) and 1.5 μg promiscuous Gαq-family protein (in pcDNA3.1(+) vector) were mixed with 200 μL Opti-MEM (Gibco, 11058021), and 8 μL Turbofect (Thermo Fisher Scientific, R0531). This promiscuous Gαq protein contains substitutions to increase promiscuity,[148] and could bind to most GPCRs, ensuring an IP1 response when a potential ligand binds to its specific GPCR, irrespective of the GPCR’s normal association with any specific Gα proteins. The DNA mixture was incubated at room temperature for 15 min and then added dropwise to the cells in F-12K medium with 10% FBS (no antibiotics), followed by incubation at 37°C in 5% CO2 overnight. The next day, cells were detached using trypsin and reseeded in white 96-well half-area tissue culture-treated plates (Corning, 3688) at a density of 20,000 cells per well in F-12K and 10% FBS, and incubated at 37°C in 5% CO2 overnight. Activation of putative apCCK or related receptor was detected by monitoring IP1 accumulation using IPOne Detection Kit (Cisbio, 62IPAPEB), as previously described.[64],[65],[141],[149],[150]
(§3) Dose-response curves and bar graphs for experimental data were plotted using Prism software (GraphPad version 8). Data are presented as mean ± SEM of at least three independent experiments, except that LogEC50 values reported in the main text are the mean ± standard deviation (SD) from at least three independent experiments. Statistical tests were performed using Prism software. They included Student’s t-test, one-way or two-way ANOVA, as appropriate. […] Electrophysiological recordings were digitized online using AxoScope software version 10.7 (Molecular Devices, LLC, Sunnyvale, CA) and were plotted by CorelDraw version 2018 (Corel Corp., Ottawa, Canada).

[2] = target: T2, apCCKR2 (Aplysia californica, UniProt A0ABM0ZX06); assay: IP1 accumulation assay, apCCKR2 in CHO-K1 cells; type: cell-based; conditions: CHO-K1 cells transfected with receptor and promiscuous Gαq
T2 sequence (A0ABM0ZX06 1-377): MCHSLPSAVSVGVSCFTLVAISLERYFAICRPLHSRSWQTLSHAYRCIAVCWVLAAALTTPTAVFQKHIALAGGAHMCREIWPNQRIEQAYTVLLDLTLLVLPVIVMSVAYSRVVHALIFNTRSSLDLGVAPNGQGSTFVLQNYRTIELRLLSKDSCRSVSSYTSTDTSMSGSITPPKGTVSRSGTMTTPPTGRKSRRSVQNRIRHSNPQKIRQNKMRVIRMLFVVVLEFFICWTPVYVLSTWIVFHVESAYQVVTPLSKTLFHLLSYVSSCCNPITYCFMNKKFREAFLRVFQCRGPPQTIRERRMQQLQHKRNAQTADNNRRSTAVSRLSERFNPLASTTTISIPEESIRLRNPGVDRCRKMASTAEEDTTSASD
Description: as §1, §2, §3

[3] = tested on: CBI-2-elicited feeding motor programs; assay: CBI-2-elicited feeding motor programs in isolated cerebral and buccal ganglia; set-up: species or system Aplysia californica; conditions: for Protraction duration of CBI-2 programs: 10^-6 M and 10^-5 M tested; for B8 activity (frequency) during retraction: CBI-2 programs, 10^-6 M and 10^-5 M; for Feeding program effect, summary grade: Table S1 summary in words
Description: To explore the neural basis of the behavioral effects of apCCKs, we examined their modulation of feeding-motor programs in isolated ganglia. All eight forms of apCCKs were tested on programs induced by CBI-2, a command-like interneuron that is active during food-elicited feeding behavior[56] and provides potent excitatory inputs to buccal central pattern generator (CPG) interneurons,[54],[77] orchestrating ingestive motor programs (Figure S23A). Stable single-cycle motor programs were evoked by stimulating CBI-2 at 8–10 Hz throughout the protraction phase with a 90-s intertrial interval. Two concentrations, 10^−6 M and 10^−5 M, of apCCKs were tested.
Intracellular and extracellular recordings were made as described previously.[57]–[59],[61],[151] To prevent movements of ganglia caused by myoactive apCCK (especially [sY8]-apCCK1 and [sY6, sY8]-apCCK1) during bath application, we treated the ganglia with 0.8% protease IX for 1–2 min prior to desheathing. Subsequently, ganglia were desheathed, transferred to a recording chamber containing ~1.5 mL of ASW (460 mM NaCl, 10 mM KCl, 11mM CaCl2, 55 mM MgCl2, and 10 mM HEPES, pH 7.6), continuously perfused at 0.3 mL/min, and maintained at 14°C–17°C. The experiments examining the effects of apCCKs on excitability of B20/B34/B61/62/B65/B64 neurons were performed in a high divalent saline (368 mM NaCl, 8 mM KCl, 13.8 mM CaCl2, 115 mM MgCl2, and 10 mM HEPES, pH 7.6), which increases the spiking threshold of neurons and therefore curtails polysynaptic influences. Intracellular recordings were obtained using 5–10 MΩ sharp microelectrodes filled with an electrolyte (0.6 M K2SO4 plus 60 mM KCl). Extracellular recordings were acquired from polyethylene suction electrodes. Grass S88 and WPI Pulsemaster A300 stimulators were used to provide timing signals for intracellular and extracellular stimulation. To determine the effects of various forms of apCCKs on Aplysia feeding programs, we performed experiments with the cerebral and buccal ganglia. Freshly made apCCK solution in ASW was perfused into the recording chamber. Feeding-motor programs were elicited by stimulation of command-like neuron CBI-2 at 8–10 Hz or stimulation of the EN at 2 Hz, 3 ms, 15 V, and were monitored by bursting activity of the I2 nerve of the buccal ganglion.[58],[59],[61] Typically, we recorded from motor neuron B8, and one interneuron, e.g., B40 or B20. To determine effects of apCCKs on synaptic strength, we stimulated presynaptic neuron, CBI-2, B34 (plus 1 nA current) or B65 at 10 Hz for 2 s for several trials and waited 1 min between each trial. The stimulation duration for each trial was set at 2 s because this allows the expression of synaptic facilitation without evoking too many spikes. Typically, the amplitude of the last EPSP at each concentration of peptides was quantified unless otherwise stated.

[4] = log[EC50] with negative sign, mean ± SD, at least three independent experiments, SD, read-out: apCCKR1: log[EC50] (converted)
[5] = log[EC50] with negative sign, mean ± SD, at least three independent experiments, SD, read-out: apCCKR2: log[EC50] (converted)
[6] = average of at least three independent experiments, read-out: apCCKR1: EC50
[7] = average of at least three independent experiments, read-out: apCCKR2: EC50

| Compound | EC50 [1, 4] [µM] | EC50 [2, 5] [µM] | Protraction duration of CBI-2 programs [3] | B8 activity (frequency) during retraction [3] | Feeding program effect, summary grade [3] | EC50 [1, 6] [µM] | EC50 [2, 7] [µM] |
| --- | --- | --- | --- | --- | --- | --- | --- |
| CC[C@H](C)[C@H](NC(=O)CNC(=O)[C@H](Cc1ccc(OS(=O)(=O)O)cc1)NC(=O)[C@H](CC(=O)O)NC(=O)CNC(=O)[C@H](Cc1ccc(OS(=O)(=O)O)cc1)NC(=O)[C@@H](N)CO)C(=O)NCC(=O)NCC(=O)NCC(=O)N[C@@H](CCCNC(=N)N)C(=O)N[C@@H](Cc1ccccc1)C(N)=O [[sY2, sY5]-apCCK2] (H-S[sY]GD[sY]GIGGGRF-NH2) | 0.331 | 0.355 | shortened | reduced | Weak | – | – |
| CC[C@H](C)[C@H](NC(=O)CNC(=O)[C@H](Cc1ccc(O)cc1)NC(=O)[C@H](CC(=O)O)NC(=O)CNC(=O)[C@H](Cc1ccc(OS(=O)(=O)O)cc1)NC(=O)[C@@H](N)CO)C(=O)NCC(=O)NCC(=O)NCC(=O)N[C@@H](CCCNC(=N)N)C(=O)N[C@@H](Cc1ccccc1)C(N)=O [[sY2]-apCCK2] (H-S[sY]GDYGIGGGRF-NH2) | – | 1.1 | – | – | No effect | > 10 | 1.4 |
| CC[C@H](C)[C@H](NC(=O)CNC(=O)[C@H](Cc1ccc(OS(=O)(=O)O)cc1)NC(=O)[C@H](CC(=O)O)NC(=O)CNC(=O)[C@H](Cc1ccc(O)cc1)NC(=O)[C@@H](N)CO)C(=O)NCC(=O)NCC(=O)NCC(=O)N[C@@H](CCCNC(=N)N)C(=O)N[C@@H](Cc1ccccc1)C(N)=O [[sY5]-apCCK2] (H-SYGD[sY]GIGGGRF-NH2) | 0.851 | 0.0389 | shortened | reduced | Moderate | – | 0.049 |
| H-SYGDYGIGGGRF-NH2 [apCCK2] | – | – | – | – | No effect | > 10 | > 10 |
